Five molecules from US12569576B2, “Compositions and methods for measuring oxidative stress” (Washington University, priority 2020, dated 2026) can be followed below.

“And” between values parts separate entries of the source, which are not always exact repeats. Equal entries are not always repeated.

Data set [1] relates to A549 cells. The data set can be described thus: Galuminox uptake in LPS-treated or serum/glucose deprived A549 cells with ROS-attenuating drugs. In kind it is cell-based, human. The following applies: LPS-treated or nutrient deprived A549 cells; Galuminox 20 μM 60 min. The procedure:
For evaluation of therapeutic effects of drugs, such as Carvedilol (CAR), Dexrazoxane (DEX), and mitoTempo (MT) on either serum/glucose deprived media- or LPS-induced superoxide production, A549 cells were incubated with either LPS (1 μg/mL) or serum/glucose deprived (starvation) media for 24 h, and thereafter incubated with Carvedilol, Dexrazoxane, and mitoTempo 24 h at 37° C. Next day, media was removed from wells, cells were carefully rinsed with PBS (2×200 μL), fresh media (200 μL) was added, and cells were incubated with Galuminox (20 μM) at 37° C. for 60 min. For controls, untreated cells were incubated with Galuminox (20 μM) under identical conditions. Thereafter, fluorescence images were acquired, and cellular uptake was quantified as described above.

The test system of data set [2] is A549 cells. The experiment in a line: Live cell fluorescence imaging, cellular accumulation in LPS-treated A549 cells. Format: cell-based, human. The following applies: LPS 1 μg/mL 24 h. The procedure:
Human alveolar basal epithelial (A549) adenocarcinoma cells were grown in Dulbecco's Modified Eagle Medium (DMEM) supplemented with 1-glutamine (2 mM), penicillin/streptomycin (200 IU.) and heat-inactivated fetal calf serum (10%). The cells were grown at 37° C. under a 5% CO2 atmosphere.
Live cell fluorescence imaging studies were performed at Washington University Center for Cellular Imaging (WUCCI). For imaging studies, A549 cells or their mt-Keima transfected counterparts were plated onto borosilicate 8-well chambered coverglass (Labtek) and allowed to grow to approximately 70% confluence at 37° C. under 5% CO2 atmosphere in the culture media (200 μL) and treated with LPS (1 μg/mL) for 24 h. Following LPS treatments, all wells were rinsed with fresh media. […] Images were processed and analyzed using the ImageJ software package (NIH). […] For analysis, ROIs were drawn on cells of both channels, scatter plots were obtained, and Pearson's Correlation Coefficients (PCC) were determined as described previously (K. W. Dunn, M. M. Kamocka, J. H. McDonald. A practical guide to evaluating colocalization in biological microscopy. Am. J. Physiol. Cell Physiol., 300 (2011), pp. C723-C742.).

The nature of data set [3]: Biodistribution studies (post preclinical imaging). Format: in vivo, C57Bl6 mice. The following applies: for Biodistribution, Bladder / Biodistribution, Blood / Biodistribution, Bone / Biodistribution, Brain / Biodistribution, Colon / Biodistribution, Fat / Biodistribution, Heart / Biodistribution, Intestine / Biodistribution, Kidney / Biodistribution, Liver / Biodistribution, Lung / Biodistribution, Muscle: 60 min, mean, n=4. The source says:
All animal procedures were approved by the Washington University Animal Studies Committee. Following microPET/CT imaging, mice (n=4) were euthanized by cervical dislocation. Blood samples were obtained by cardiac puncture, organs then harvested rapidly, and all tissue samples analyzed for γ-activity using Beckman Gamma 8000 counter. All samples were decay-corrected to the time the γ-counter was started. Standard samples were counted with the organs for each animal and represent […] of the injected dose. An additional dose was diluted into milliQ water (100 mL) and aliquots (1 mL) were counted with each mouse. Data were quantified as the percentage injected dose (% ID) per gram of tissue (tissue kBq (injected kBq)^−1 (g tissue)^−1×100) in Table 2, shown below.

Another data set relates to left transplanted lung. The data set can be described thus: MicroPET/CT imaging in mouse lung transplant model of CLAD. In kind it is in vivo, mice. Conditions: 4 days post left lung transplant; PET/CT 30 min post injection, 20 min static scan. How it is done:
The next experiment was an evaluation of Galuminox in a mouse lung transplant model of CLAD. Allogeneic (FVB) left lung recipients (B16 mice) were treated with immunosuppression agents CD40L and CTLA4Ig to induce tolerance. Despite treatment with immunosuppressant drugs, allogeneic transplants show OB lesions as a function of time, normally defined as early stages of disease progression (early CLAD) and late stages of disease progression (fulminant CLAD).
4 days post left lung transplant from FVB mice (donor) into B16 mice (acceptor), both transplanted mice and un-transplanted control counterparts were imaged using PET/CT 30 minutes post tail-vein administration of ^68Ga-Galuminox using static acquisition scan of 20 min (FIG. 12A). PET images were co-registered with CT for anatomical correlation. Standard Uptake Values (SUVs) were determined by drawing ROI, and counts were normalized to injected dose and weights of animals (FIG. 12B).

The subject of data set [4] is ROS activity in acutely injured lungs. The data set can be described thus: Preclinical PET/CT imaging, mouse model of LPS-mediated acute lung injury. Format: in vivo. Conditions: for Standard Uptake Value (SUV) in lungs: n=4, frames 45-60 min. The procedure:
All animal procedures were approved by the Washington University Animal Studies Committee. Imaging and biodistribution studies were performed in C57Bl6 mice (average weight, 24 g). Male mice (n=4) were treated either with LPS at a dose of 5 μg/g or vehicle (saline) 24 h prior to imaging/biodistribution studies. For these studies, mice were anesthetized with isoflurane (2.0%) via an induction chamber and maintained with a nose cone. After anesthetization, the mice were secured in a supine position and placed in an acrylic imaging tray. Following intravenous tail-vein administration of ^68Ga-Galuminox (100 μL; 100 μCi; 2% ethanol in saline, 3.7 MBq), dynamic preclinical PET scans were performed over 60 min, using Inveon PET/CT scanner (Siemens Medical Solutions). PET data were stored in list mode, and reconstruction was performed using a 3D-OSEM method with detector efficiency, decay, dead time, attenuation, and scatter corrections applied. For anatomical visualization, PET images were also co-registered with CT images from an Inveon PET/CT scanner. ROIs were drawn over the lung, and standard uptake values (SUV) were calculated as the mean radioactivity per injected dose per animal weight.

The mark [5] stands for this setting: LPS vs saline, 1 h post injection.

As for `C[C@@H](CN1CC(=O)NC(=O)C1)N1CC(=O)NC(=O)C1` [DEX, Dexrazoxane], the “Galuminox probe uptake in the presence of the drug compared to control A549 cells” value in the data set on A549 cells [1] was “significantly decreased”.
The same measure, in the same setting: to `CC1(C)CC(NC(=O)C[P+](c2ccccc2)(c2ccccc2)c2ccccc2)CC(C)(C)N1[O]` [Mito-Tempo] belongs “significantly decreased”.
With `Nc1ccc2c(c1)C(c1ccccc1)N(CCCCCC[P+](c1ccccc1)(c1ccccc1)c1ccccc1)c1cc(N)ccc1-2.[I-]` (stereo not drawn) [MitoSOX], the “probe fluorescence, LPS stimulated vs untreated A549 control cells” value in the data set with A549 cells [2] is on record as “higher fluorescence”.
For the molecule `O=C(CNC(=S)Nc1ccc(CC2CN3CCN4CCN2CC(=O)[O][68Ga]([O]C(=O)C4)[O]C(=O)C3)cc1)Nc1cccc2c(=O)[nH][nH]c(=O)c12` (stereo not drawn) [^68Ga-Galuminox], the “excretion profiles (biodistribution)” value in data set [3] (1 h post injection) was “both hepatobiliary- and renal-modes of excretion”. For the same molecule, in data set [3] (Control (saline)), the “Biodistribution, Bladder” value was determined as 162.956 % ID/g; the “Biodistribution, Blood” value was 2.82±0.88 % ID/g and 2.822 % ID/g; the “Biodistribution, Bone” value was 1.0±0.34 % ID/g and 1.002 % ID/g; the “Biodistribution, Brain” value was determined as 0.5693 % ID/g. In addition, in data set [3] (Control (saline)), the “Biodistribution, Colon” value is listed as 0.8617 % ID/g; the “Biodistribution, Fat” value was found to be 0.6117 % ID/g; the “Biodistribution, Heart” value is 2.381 % ID/g; the “Biodistribution, Intestine” value is recorded as 4.286 % ID/g. In data set [3] (Control (saline)), the “Biodistribution, Kidney” value amounted to 13.0965 % ID/g; the “Biodistribution, Liver” value was 6.14±0.66 % ID/g and 6.138 % ID/g; the “Biodistribution, Lung” value is 39.7±19.3 % ID/g and 39.7 % ID/g; the “Biodistribution, Muscle” value came out at 1.084 % ID/g. For the same molecule, in data set [3] (LPS treated), the “Biodistribution, Bladder” value is recorded as 5.893 % ID/g; the “Biodistribution, Blood” value was 3.96±1.83 % ID/g and 3.96 % ID/g; the “Biodistribution, Bone” value was 2.14±0.57 % ID/g and 2.138 % ID/g; the “Biodistribution, Brain” value is given as 0.2628 % ID/g. Moreover, in data set [3] (LPS treated), the “Biodistribution, Colon” value was 0.2924 % ID/g; the “Biodistribution, Fat” value came to 0.3021 % ID/g; the “Biodistribution, Heart” value amounted to 1.073 % ID/g; the “Biodistribution, Intestine” value is listed as 1.314 % ID/g. Further, in data set [3] (LPS treated), the “Biodistribution, Kidney” value was determined as 3.048 % ID/g; the “Biodistribution, Liver” value is 10.5±1.68 % ID/g and 10.46 % ID/g; the “Biodistribution, Lung” value is 147.9±25.8 % ID/g and 147.8875 % ID/g; the “Biodistribution, Muscle” value worked out at 0.294 % ID/g. Moreover, in data set [3] (setting [5]), the “bone retention, LPS vs saline” value was determined as 2.1 fold; the “higher retention in lungs of LPS treated mice vs saline-only (biodistribution)” value came out at 4 fold; the “higher retention in the blood of LPS treated mice vs saline” value turned out to be 1.4 fold; the “liver retention, LPS vs saline” value is on record as 1.7 fold. For the same molecule, in data set [3] (lung 4 fold / blood 1.4 fold), the “higher specific retention in lungs of LPS treated mice (lung normalized to blood)” value is 3 fold and 2.85 fold. Also, the “higher uptake in the left transplanted lung compared with untransplanted mice (SUV)” value in the data set on left transplanted lung is on record as 1.5 fold. Moreover, the “SUV time-activity curves, retention in lungs of LPS-treated mice” value in data set [4] (0-60 min dynamic PET) is “consistently higher and stable retention”. Further, in data set [4] (LPS-treated mice (5 μg/g, 24 h)), the “Standard Uptake Value (SUV) in lungs” value was determined as 12.9±1.85. The “mode of excretion (PET pharmacokinetics)” value in data set [4] (mouse, in vivo) is recorded as “dominant renal mode of probe excretion”. Also, in data set [4] (saline (vehicle) only treated mice), the “Standard Uptake Value (SUV) in lungs” value turned out to be 2.62±0.48.
For `COc1ccccc1OCCNCC(O)COc1cccc2[nH]c3ccccc3c12` (stereo not drawn) [CAR, Carvedilol], in the data set on A549 cells [1], the “Galuminox probe uptake in the presence of the drug compared to control A549 cells” value is “significantly decreased”.
